Experimental data from patent EP0545103A1, “Insecticidal, acaricidal and molluscicidal 1-(substituted) thioalkylpyrroles” (priority 1991, dated 1993).

Experiments:
[1] = tested on: Heliothis virescens, egg, tobacco budworm; assay: Tobacco budworm egg test, dipped cotton leaf and eggs; format: in vivo; set-up: key: 0: no effect; 10-25% kill; 26-35% kill; 36-45% kill; 46-55% kill; 56-65% kill; 66-75% kill; 76-85% kill; 86-99% kill; 9: 100% kill; settings: mortality rating after 3 days
Method in brief: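 Compound dissolved at 10,000 ppm in 35% aqueous acetone, diluted with water. A cotton leaf and a cheesecloth square with roughly 50-100 eggs aged 6-30 h are each dipped for about 3 s, then combined and kept humid. Mortality counted after 3 days and rated on a scale.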

[2] = tested on: Heliothis virescens, 3rd instar tobacco budworm; assay: Tobacco budworm 3rd instar test, dipped cotton cotyledons; format: in vivo; set-up: key: 0: no effect; 10-25% kill; 26-35% kill; 36-45% kill; 46-55% kill; 56-65% kill; 66-75% kill; 76-85% kill; 86-99% kill; 9: 100% kill; settings: mortality rating after 3 days
Experimental: (§1) Test solutions are prepared by dissolving the test compound in a 35% acetone in water mixture to give a concentration of 10,000 ppm. Subsequent dilutions are made with water as needed.
Heliothis virescens, 3rd instar tobacco budworm
Cotton cotyledons are dipped in the test solution and allowed to dry in a hood. When dry, each is cut into quarters and ten sections are placed individually in 30 mL plastic medicine cups containing a 5-7mm long piece of damp dental wick. One 3rd instar caterpillar is added to each cup and the cup is sealed with MYLAR® film. Treatments are maintained for 3 days before a mortality count and observation of reduction in feeding damage are made.
(§2) All of the above tests are rated according to the rating scale shown below.

[3] = tested on: Spodoptera eridania, 3rd instar larvae, southern armyworm; assay: Southern armyworm systemic uptake (stem systemic) test; format: in vivo; set-up: key: 0: no effect; 10-25% kill; 26-35% kill; 36-45% kill; 46-55% kill; 56-65% kill; 66-75% kill; 76-85% kill; 86-99% kill; 9: 100% kill; settings: cut stem in emulsion 3 days
[4] = tested on: Diabrotic undecimpunctata howardi, 3rd instar southern corn rootworm; assay: Southern corn rootworm soil test; format: in vivo; set-up: key: 0: no effect; 10-25% kill; 26-35% kill; 36-45% kill; 46-55% kill; 56-65% kill; 66-75% kill; 76-85% kill; 86-99% kill; 9: 100% kill; settings: mortality rating after 6 days
Method in brief: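 Compound applied in acetone to talc at 1.25 and 0.25 mg active ingredient per jar (about 50 and 10 kg/ha), dried, then mixed with millet seed and moist soil. Ten 3rd instar larvae added per jar; mortality counted at 6 days, with missing larvae scored dead. Results rated on a scale.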

[5] = tested on: Tetranychus urticae (OP-resistant strain), 2-spotted spider mite; assay: 2-spotted spider mite test, dipped infested limabean plants; format: in vivo; set-up: key: 0: no effect; 10-25% kill; 26-35% kill; 36-45% kill; 46-55% kill; 56-65% kill; 66-75% kill; 76-85% kill; 86-99% kill; 9: 100% kill; settings: for OP-RESISTANT MITES Egg: mite eggs
Experimental: as §1
Tetranychus urticae (OP-resistant strain), 2-spotted spider mite
Sieva limabean plants with primary leaves expanded to 7-8 cm are selected and cut back to one plant per pot. A small piece is cut from an infested leaf taken from the main colony and placed on each leaf of the test plants. This is done about 2 hours before treatment to allow the mites to move over to the test plant and to lay eggs. The size of the cut, infested leaf is varied to obtain about 100 mites per leaf. At the time of test treatment, the piece of leaf used to transfer the mites is removed and discarded. The newly mite-infested plants are dipped in the test solution for 3 seconds with agitation and set in the hood to dry. After 2 days one leaf is removed and mortality counts are made. After 5 days, another leaf is removed and observations are made of mortality of the eggs and/or newly emerged nymphs.
as §2

[6] = tested on: Aphis fabae, mixed instar, bean aphid; assay: Bean aphid spray test on nasturtium; format: in vivo; set-up: key: 0: no effect; 10-25% kill; 26-35% kill; 36-45% kill; 46-55% kill; 56-65% kill; 66-75% kill; 76-85% kill; 86-99% kill; 9: 100% kill; settings: 100 ppm
Experimental: as §1
Aphis fabae, mixed instar, bean aphid
Pots containing single nasturtium plants (Tropaeolum sp.) about 5 cm tall are infested with about 100-200 aphids one day prior to treatment. Each pot is sprayed with the test solution for 2 revolutions of a 4 rpm turntable in a hood, using a #154 DeVilbiss atomizer. The spray tip is held about 15 cm from the plant and the spray directed so as to give complete coverage of the plants and the aphids. The sprayed pots are set on their sides on white enamel trays and mortality estimates are made after 2 days.
as §2

[7] = tested on: Empoasca abrupta, adult, western potato leafhopper; assay: Western potato leafhopper contact test, dipped limabean leaf; format: in vivo; set-up: key: 0: no effect; 10-25% kill; 26-35% kill; 36-45% kill; 46-55% kill; 56-65% kill; 66-75% kill; 76-85% kill; 86-99% kill; 9: 100% kill
Experimental: as §1
Empoasca abrupta, adult, western potato leafhopper
A Sieva limabean leaf about 5 cm long is dipped in the test solution for 3 seconds with agitation and placed in a hood to dry. The treated leaf is placed in a 100 x 10 mm petri dish containing a moist filter paper and about 10 adult leafhoppers are added. After 2 days, mortality counts are made.
as §2

[8] = tested on: Empoasca abrupta, adult, western potato leafhopper; assay: Western potato leafhopper systemic uptake test; format: in vivo; set-up: key: 0: no effect; 10-25% kill; 26-35% kill; 36-45% kill; 46-55% kill; 56-65% kill; 66-75% kill; 76-85% kill; 86-99% kill; 9: 100% kill; settings: 100 ppm
Experimental: Empoasca abrupta, adult, western potato leafhopper Systemic Uptake
An emulsion containing 0.1 gm of the test material, 0.2 gm of Emulphor EL-620® emulsifier, 10 mL of acetone and 90 mL of water is prepared and diluted 10-fold with water to give a 100 ppm emulsion. Subsequent 10-fold dilutions are made with water as needed. Sieva limabean plants, with the primary leaves expanded to a length of 7-8 cm, are cut off at least 3 cm above the soil level to avoid contamination with soil bacteria which will cause decay of the stem during the test. The cut stem is placed in the test emulsion and wrapped with a bit of cotton to hold the stem off the bottom of the bottle and to limit evaporation. The treated stem is maintained for 3 days at 27°C to allow the test compound to be taken up into the plant. Following this, one leaf is removed from the plant and placed in a 100 x 10 mm petri dish containing a moist filter paper and about 10 adult leafhoppers as described above. Mortality counts are made after 2 days.
as §2

Venturia inaequalis = assay: In vivo fungicidal activity, Apple Scab (AS); settings: rate 400 ppm, host plants sprayed then inoculated, rating, averaged
Experimental: (§3) Test compounds are dissolved in acetone and diluted with deionized water containing about 0.05% TWEEN 20®, a polyoxyethylene sorbitan monolaurate surfactant manufactured by Atlas Chemical Industries, to give a concentration of 400 ppm. Subsequent dilutions are made with an 0.05% aqueous solution of TWEEN 20®.
(§4) Host plants are sprayed with test solution, dried and inoculated with fungi. When disease symptom development is optimal, the plants are rated for disease control according to the rating scale shown below. Each test contains inoculated treated plants, inoculated untreated plants and a reference standard.
(§5) When more than one test is run, the data are averaged.

Plasmopara viticola = assay: In vivo fungicidal activity, Grape Downy Mildew (GDM); settings: rate 400 ppm, rating, averaged
Experimental: as §3, §4, §5

Cercospora beticola = assay: In vivo fungicidal activity, Sugarbeet Cercospora (SBC); settings: rate 400 ppm, rating, averaged
Experimental: as §3, §4, §5

[9] = tested on: Puccinia recondita, tritici; assay: In vivo fungicidal activity, Wheat Leaf Rust (WLR); settings: rate 400 ppm, rating, averaged
Experimental: as §3, §4, §5

[10] = tested on: Erysiphe graminis, tritici; assay: In vivo fungicidal activity, Wheat Powdery Mildew (WPM); settings: rating, averaged
Experimental: as §3, §4, §5

[11] = tested on: Spodoptera eridania, 3rd instar larvae, southern armyworm; assay: Southern armyworm 3rd instar test, dipped limabean leaf; format: in vivo; settings: for ARMYWORM Day 5: rating at 5 days; for ARMYWORM Day 3: rating at 3 days
Method in brief: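 Compound dissolved in 35% acetone/water at 10,000 ppm stock, diluted with water. Sieva limabean leaves dipped 3 s, dried, and exposed to ten 3rd instar larvae on damp filter paper. Mortality, reduced feeding and molting interference scored at 3 and 5 days on a rating scale.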

[12] = tested on: Spodoptera eridania, 3rd instar larvae, southern armyworm; assay: Southern armyworm 7-day residual test; format: in vivo; settings: R designates Residual: 7-day residual foliage, concentration not given
Method in brief: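 Compound was dissolved in 35% aqueous acetone (10,000 ppm stock) and diluted with water before treating lima bean leaves. The leaves were aged 7 days under high-intensity greenhouse lamps (14 h day). Third-instar Spodoptera eridania larvae were then assayed on the foliage and rated on a scale.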

[13] = 300 ppm, mite nymphs, rating scale 0-9
[14] = 100 ppm, contact, rating scale 0-9
[15] = systemic uptake, rating scale 0-9

CC(=O)SCn1c(Br)c(Br)c(C#N)c1Br [Example 34]
8 (86-99% kill): TOBACCO BUDWORM Egg ([1]; 1000 ppm) | APHIDS ([6]; rating scale 0-9)
0: TOBACCO BUDWORM 3rd Instar ([2]; 100 ppm) | ARMYWORM Stem Sys [3] | SOUTHERN CORN ROOTWORM ([4]; 50 (ppm as headed)) | OP-RESISTANT MITES Adult ([5]; 300 ppm, rating scale 0-9) | OP-RESISTANT MITES Egg ([5]; 300 ppm, rating scale 0-9) | OP-RESISTANT MITES Nymph [5, 13] | LEAFHOPPER Contact [7, 14] | LEAFHOPPER Systemic [8, 15]
9 (100% kill): TOBACCO BUDWORM 3rd Instar ([2]; 1000 ppm)

CC(C)OP(=S)(OC(C)C)SCn1c(Br)c(Br)c(C#N)c1Br [O,O-diisopropyl S-(2,3,5-tribromo-4-cyanopyrrole-1-yl)methyl ester phosphorodithioic acid]
7.0: Disease Control WPM ([10]; rate 400 ppm)
4.0: Disease Control WPM ([10]; rate 100 ppm)
0 (0): Disease Control AS (Venturia inaequalis) | Disease Control GDM (Plasmopara viticola) | Disease Control SBC (Cercospora beticola) | Disease Control WLR [9] | Disease Control WPM ([10]; rate 25 ppm)

N#Cc1c(Cl)c(C(F)(F)F)n(CSC(=N)N)c1-c1ccc(Cl)cc1 [Example 3]
9 (100% kill): ARMYWORM Day 5 ([11]; 10 ppm) | ARMYWORM Day 5 ([11]; 100 ppm) | ARMYWORM Day 5 ([11]; 1000 ppm) | SOUTHERN CORN ROOTWORM ([4]; 50 (ppm as headed)) | OP-RESISTANT MITES Nymph ([5]; 300 ppm, rating after 5 days) | LEAFHOPPER Contact ([7]; 10 ppm, mortality rating after 2 days) | LEAFHOPPER Contact ([7]; 100 ppm, mortality rating after 2 days)
0: TOBACCO BUDWORM Egg ([1]; 100 ppm) | ARMYWORM Stem Sys [3] | SOUTHERN CORN ROOTWORM ([4]; 1 (ppm as headed)) | SOUTHERN CORN ROOTWORM ([4]; 10 (ppm as headed)) | OP-RESISTANT MITES Nymph ([5]; 10 ppm, rating after 5 days) | APHIDS ([6]; spray, mortality rating after 2 days) | LEAFHOPPER Systemic ([8]; cut stem in emulsion 3 days, mortality rating after 2 days)
5 (56-65% kill): TOBACCO BUDWORM Egg ([1]; 1000 ppm)

CN(C)C(=S)SCn1c(-c2ccc(Cl)c(Cl)c2)c(Br)c(C(F)(F)F)c1C(F)(F)F [Example 33]
8 (86-99% kill): OP-RESISTANT MITES Egg ([5]; 100 ppm, rating scale 0-9) | LEAFHOPPER Contact [7, 14]
0: TOBACCO BUDWORM Egg ([1]; 1000 ppm) | ARMYWORM Stem Sys [3] | OP-RESISTANT MITES Adult ([5]; 10 ppm, rating scale 0-9) | OP-RESISTANT MITES Egg ([5]; 10 ppm, rating scale 0-9) | OP-RESISTANT MITES Nymph ([5]; 10 ppm, mite nymphs, rating scale 0-9) | OP-RESISTANT MITES Adult ([5]; 100 ppm, rating scale 0-9) | OP-RESISTANT MITES Nymph ([5]; 100 ppm, mite nymphs, rating scale 0-9) | OP-RESISTANT MITES Egg ([5]; 300 ppm, rating scale 0-9) | OP-RESISTANT MITES Nymph [5, 13] | APHIDS ([6]; rating scale 0-9) | LEAFHOPPER Contact ([7]; 10 ppm, contact, rating scale 0-9) | LEAFHOPPER Systemic [8, 15]
7 (76-85% kill): OP-RESISTANT MITES Adult ([5]; 300 ppm, rating scale 0-9)
9 (100% kill): ARMYWORM Day 3 ([11]; 10 ppm) | ARMYWORM Day 5 ([11]; 10 ppm) | ARMYWORM Day 3 ([11]; 100 ppm) | ARMYWORM Day 5 ([11]; 100 ppm) | ARMYWORM Day 3 ([11]; 1000 ppm) | ARMYWORM Day 5 ([11]; 1000 ppm) | ARMYWORM Day 3 R ([12]; rating at 3 days) | ARMYWORM Day 5 R ([12]; rating at 5 days)
